{"source": "patent US20250049693A1", "about": "“METHOD FOR AMPLIFYING EXPRESSION OF TRANSPORTER-RELATED GENE IN EPIDERMAL CELLS” (J-Network, Inc., priority 2023, published 2025)", "key": {"[1]": {"tested_on": "Normal human epidermal keratinocytes (NHEKs)", "test": "Evaluation of cellular uptake action of cystine: hydroquinone cytotoxicity, neutral red assay", "type": "cell-based", "details": "then 400 μM hydroquinone 24 hours", "protocol": "From the test results of (1) and (2) described above, it was confirmed that the expression of the SLC7A11 genes was enhanced by the application of the diacylglycerol PEG adduct to epidermal cells, and thus the production of the protein, which is the xCT transporter encoded thereby, was enhanced. Therefore, the cellular uptake action of cystine was actually evaluated. This evaluation was performed by quantifying the cytotoxicity of hydroquinone (HQ) when a diacylglycerol PEG adduct, cystine, and hydroquinone were added to epidermal cells.\nNormal human epidermal keratinocytes (NHEKs) were seeded on a 96-well plate at a cell density of 2.0×10^4 cells/well using HuMedia-KG2 medium and cultured under the conditions of 37° C. and 5% CO2 for 24 hours.\nThereafter, using HuMedia-KB2 medium, a sample to which 50 μM of PEG-23 glycerol distearate (GDS23) was added and a sample to which GDS23 was not added were respectively cultured under the conditions of 37° C. and 5% CO2 for 24 hours.\nSubsequently, the samples were washed with PBS (−), and the GDS23-added samples and the GDS23 non-added samples were respectively cultured in the following three media for 30 hours. The cysteine added to the medium is oxidized in the medium or between cells to be converted into cystine, which is a dimer, and is incorporated into the cells as cystine. • HuMedia-KB2 medium containing 0 μM of cysteine (Cys) • HuMedia-KB2 medium containing 10 μM of cysteine (Cys) • HuMedia-KB2 medium containing 50 μM of cysteine (Cys)\nFurther, the cells were washed with PBS (−) and cultured in HuMedia-KB2 medium containing 400 μM of hydroquinone (HQ) for 24 hours.\nThe control (no addition of any of GDS23, Cys, and HQ) was cultured only in HuMedia-KB2 medium.\nThereafter, the cell viability was measured by the neutral red assay. The cell viability was calculated for each of the GDS23-added samples and the GDS23 non-added samples, taking the cell viability of the control as 100%."}, "GSR gene": {"tested_on": "GSR gene", "test": "Amplification of mRNA expression of GSR gene (quantitative real-time PCR)", "type": "cell-based, human", "details": "NHEKs, corrected with GAPDH, control = 1", "protocol": "(§1) A test for confirming the amplification of mRNA expression of each transporter-related gene in epidermal cell was performed.\n(§2) Normal human epidermal keratinocytes (NHEKs) were seeded on a 96-well plate at a cell density of 2.0×10^4cells/well using HuMedia-KG2 medium (manufactured by Kurabo Industries Ltd.), and cultured under the conditions of 37° C. and 5% CO2 for 24 hours.\n(§3) Thereafter, a diacylglycerol PEG adduct was added thereto using HuMedia-KB2 medium (manufactured by Kurabo Industries Ltd.), and each was cultured under the conditions of 37° C. and 5% CO2 for a predetermined time. Table 1 represents the target gene, the types of diacylglycerol PEG adduct added, the adding amount, and the culture time. A control (no addition) was also cultured under the same conditions.\n(§4) After the cells were cultured for each predetermined time, RNA was extracted from the cells of each sample and control. The extracted RNA was reverse-transcribed to prepare cDNA, and the mRNA of the target gene was quantified by quantitative real-time PCR expression analysis. […]\n(§5) In the analysis, the mRNA expression level of each target gene was corrected with the value of the expression level of GAPDH, which is an internal standard in the same sample, and the correction value of the sample was calculated as a relative expression level when the correction value of the control was set to 1."}, "ABCC1 gene": {"tested_on": "ABCC1 gene", "test": "Amplification of mRNA expression of ABCC1 gene (quantitative real-time PCR)", "type": "cell-based, human", "details": "NHEKs, corrected with GAPDH, control = 1", "protocol": "as §1, §2, §3, §4, §5"}, "SVCT2 protein": {"tested_on": "SVCT2 protein", "test": "Test for enhanced production of SVCT2 proteins (Western blotting)", "type": "cell-based, human", "details": "NHEKs, 50 μM, 24 hours", "protocol": "A test for confirming the enhanced production of proteins encoded by the SVCT2 genes was performed using Western blotting.\nNormal human epidermal keratinocytes (NHEKs) were seeded on a 96-well plate at a cell density of 1.0×10^5 cells/well using HuMedia-KG2 medium and cultured under the conditions of 37° C. and 5% CO2 for 24 hours.\nThereafter, 50 μM of PEG-23 glycerol distearate (GDS23) was added thereto using HuMedia-KB2 medium, and the cells were cultured under the conditions of 37° C. and 5% CO2 for 24 hours. A control (no addition) was cultured only in HuMedia-KB2 medium.\nAfter culturing, Western blotting was applied. First, proteins were extracted from the cells using […] containing 10% mercaptoethanol. The protein extract solution was subjected to electrophoresis using a polyacrylamide gel, and the proteins were transferred to a membrane by a semi-dry method. The amount of the SVCT2 protein was corrected with the amount of GAPDH, which is an internal standard in the same sample, and the correction value of the sample was calculated with the correction value of the control set to 1."}, "[2]": {"tested_on": "Normal human epidermal keratinocytes (NHEKs)", "test": "Evaluation of cellular uptake action of vitamin C: hydroquinone cytotoxicity, neutral red assay", "type": "cell-based", "details": "then 400 μM hydroquinone 24 hours", "quoted_text": "This evaluation was performed by quantifying the cytotoxicity of hydroquinone (HQ) when a diacylglycerol PEG adduct, vitamin C, and hydroquinone were added to epidermal cells.\nNormal human epidermal keratinocytes (NHEKs) were seeded on a 96-well plate at a cell density of 2.0×10^4 cells/well using HuMedia-KG2 medium and cultured under the conditions of 37° C. and 5% CO: for 24 hours.\nThereafter, using HuMedia-KB2 medium, a sample to which 50 μM of PEG-23 glycerol distearate (GDS23) was added and a sample to which GDS23 was not added were respectively cultured under the conditions of 37° C. and 5% CO: for 24 hours.\nSubsequently, the samples were washed with PBS (−), and the GDS23-added samples and the GDS23 non-added samples were respectively cultured in the following six media for 24 hours. • HuMedia-KB2 medium containing 0 μM of ascorbic acid (AsA) • HuMedia-KB2 medium containing 1 μM of ascorbic acid (AsA) • HuMedia-KB2 medium containing 5 μM of ascorbic acid (AsA) • HuMedia-KB2 medium containing 10 μM of ascorbic acid (AsA) • HuMedia-KB2 medium containing 50 μM of ascorbic acid (AsA) • HuMedia-KB2 medium containing 100 μM of ascorbic acid (AsA)\nThe control (no addition of any of GDS23, AsA, and HQ) was cultured only in HuMedia-KB2 medium."}, "SVCT2 gene": {"tested_on": "SVCT2 gene", "test": "Amplification of mRNA expression of SVCT2 gene (quantitative real-time PCR)", "type": "cell-based, human", "details": "NHEKs; 100 μM; culture 30 hr; corrected with GAPDH, control = 1", "protocol": "as §1, §2, §3, §4, §5"}, "SLC7A11 gene": {"tested_on": "SLC7A11 gene", "test": "Amplification of mRNA expression of SLC7A11 gene (quantitative real-time PCR)", "type": "cell-based, human", "details": "NHEKs; 100 μM; culture 24 hr; corrected with GAPDH, control = 1", "protocol": "as §1, §2, §3, §4, §5"}}}
{"compound": "N[C@@H](CS)C(=O)O", "note": "[cysteine, reference compound]", "values": [{"measurement": "effect of cysteine (cystine) on the cytotoxicity caused by hydroquinone (cell viability)", "setting": "[1]; GDS23 non-added samples, cysteine 10 μM and 50 μM, 30 hours, versus cysteine non-added sample", "result": "almost no effect"}]}
{"compound": "PEG-23 glycerol distearate [GDS23]", "values": [{"measurement": "relative expression level of GSR gene", "setting": "GSR gene; 50 μM, culture 24 hr", "result": "about 1.8 times that of the control"}, {"measurement": "relative expression level of ABCC1 gene", "setting": "ABCC1 gene; 50 μM, culture 24 hr", "result": "about 2.1 times that of the control"}, {"measurement": "SVCT2 protein band (Western blot image)", "setting": "SVCT2 protein; FIG. 11", "result": "increase"}, {"measurement": "amount of the SVCT2 protein", "setting": "SVCT2 protein; Western blot, corrected with GAPDH, control = 1", "result": "about 1.4 times that in the control sample"}, {"measurement": "cytotoxicity by hydroquinone (cell viability), GDS23-added versus GDS23 non-added samples", "setting": "[2]; 50 μM GDS23 24 hours, ascorbic acid 0-100 μM 24 hours", "result": "significantly reduced"}, {"measurement": "cell viability of ascorbic acid-added samples versus ascorbic acid non-added sample among GDS23-added samples", "setting": "[2]; 50 μM GDS23 24 hours, ascorbic acid 1-100 μM 24 hours", "result": "higher"}, {"measurement": "cytotoxicity by hydroquinone (cell viability), GDS23-added versus GDS23 non-added samples", "setting": "[1]; 50 μM GDS23 24 hours, cysteine 0-50 μM 30 hours", "result": "significantly reduced"}, {"measurement": "cell viability of cysteine-added samples versus cysteine non-added sample among GDS23-added samples", "setting": "[1]; 50 μM GDS23 24 hours, cysteine 10 or 50 μM 30 hours", "result": "higher"}]}
{"compound": "O=C1O[C@H]([C@@H](O)CO)C(O)=C1O", "note": "[ascorbic acid, reference compound]", "values": [{"measurement": "effect of ascorbic acid on the cytotoxicity caused by hydroquinone (cell viability)", "setting": "[2]; GDS23 non-added samples, ascorbic acid 5 to 100 μM, 24 hours, versus ascorbic acid non-added sample", "result": "almost no effect"}]}
{"compound": "PEG-12 glycerol dimyristate [GDM12]", "values": [{"measurement": "relative expression level of SVCT2 gene", "setting": "SVCT2 gene", "result": "about 1.4 times that of the control"}, {"measurement": "relative expression level of SLC7A11 gene", "setting": "SLC7A11 gene", "result": "about 1.4 times that of the control"}, {"measurement": "relative expression level of GSR gene", "setting": "GSR gene; 100 μM, culture 30 hr", "result": "about 1.5 times that of the control"}, {"measurement": "relative expression level of ABCC1 gene", "setting": "ABCC1 gene; 100 μM, culture 30 hr", "result": "about 1.3 times that of the control"}]}
